Source: ChEMBL document CHEMBL5380870, “Halo Library, a Tool for Rapid Identification of Ligand Binding Sites on Proteins Using Crystallographic Fragment Screening” (J Med Chem, 2023)

Assays:
[1] = tested on: Human immunodeficiency virus type 1 reverse transcriptase (Human immunodeficiency virus 1), Q72547 [UNDEFINED MUTATION]; conditions: time 140.0 min, at 5 mM
[2] = target: Human immunodeficiency virus type 1 reverse transcriptase (Human immunodeficiency virus 1, UniProt Q72547); test: Inhibition of HIV-1 reverse transcriptase RT52A mutant using ABTS as substrate preincubated with compound for 1 hr followed by template-primer addition for 1 hr and measured 20 mins after substrate addition by absorbance based Roche colorimetric assay

SMILES	inhibition [1] [%]	IC50 [2] [mM]
NCc1cccc(Br)c1	96	–
Oc1ccc(C(F)(F)F)cn1	35	–
Ic1cn[nH]c1	24	–
O=C(O)c1cc2cc(F)ccc2[nH]1 [5-FLUOROINDOLE-2-CARBOXYLIC ACID]	99	2.9
Nc1ccncc1Br	99	2.1
N#Cc1c(N)cccc1F	75	–
Cc1c(CO)cnn1-c1ccc(F)cc1	55	–
NCCc1c(F)cccc1Cl	99	2.1
CNc1ccc(C(F)(F)F)cc1N	35	–
Brc1cn[nH]c1	22	–
O=c1[nH]cnc2cccc(F)c12	55	–
